In US20240092773A1, “DIHYDRO-CYCLOPENTA-ISOQUINOLINE SULFONAMIDES DERIVATIVES” (UCB Biopharma SRL, priority 2019, published 2024) one finds IC50 data, which are given here for 26 molecules.

Sequence of IgE-Tb binding to soluble IgE receptor FcεR1α (Y131A mutation) (P01854 whole entry N146Q/N252Q, looked up): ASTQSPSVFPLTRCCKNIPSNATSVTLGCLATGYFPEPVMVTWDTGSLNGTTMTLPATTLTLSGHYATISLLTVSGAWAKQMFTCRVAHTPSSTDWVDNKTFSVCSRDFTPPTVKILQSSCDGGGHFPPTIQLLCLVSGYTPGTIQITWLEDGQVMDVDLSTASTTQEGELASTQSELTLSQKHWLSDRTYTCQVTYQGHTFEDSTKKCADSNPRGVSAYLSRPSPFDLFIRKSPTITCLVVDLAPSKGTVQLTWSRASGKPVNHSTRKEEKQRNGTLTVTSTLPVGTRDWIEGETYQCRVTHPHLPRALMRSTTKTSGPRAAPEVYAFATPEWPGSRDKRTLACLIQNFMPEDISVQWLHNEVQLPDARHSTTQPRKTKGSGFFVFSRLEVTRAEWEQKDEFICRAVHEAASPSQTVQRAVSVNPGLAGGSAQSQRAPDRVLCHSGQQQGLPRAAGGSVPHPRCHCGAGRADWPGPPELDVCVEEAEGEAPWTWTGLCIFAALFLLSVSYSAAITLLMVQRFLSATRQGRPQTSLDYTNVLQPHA

This assay addresses IgE-Tb binding to soluble IgE receptor FcεR1α (Y131A mutation) (Homo sapiens, UniProt P01854, N146Q/N252Q). The experiment in a line: In vitro FRET assay: inhibition of binding of IgE-Tb to receptor FcεR1α-Y131A-AF488. The note with it: read-out: FRET IC50 range.
On to `CCNC1=NS(=O)(=O)N=C1NC1CCc2cc(S(=O)(=O)NCC(C)C)c3cc(C4CC4)ncc3c21` (centres unmarked) [Example 66, 3-cyclopropyl-9-[[4-(ethylamino)-1,1-dioxo-1,2,5-thiadiazol-3-yl]amino]-N-(2-methylpropyl)-8,9-dihydro-7H-cyclopenta[h]isoquinoline-5-sulfonamide], for which the IC50 was 100 to 2000 nM.
As for `CC(C)CNS(=O)(=O)c1cc2c(c3cnc(C4CC4)cc13)C(n1cnnc1Nc1cncc(F)c1)CC2` (centres unmarked) [Example 6, 3-cyclopropyl-9-[3-[(5-fluoro-3-pyridyl)amino]-1,2,4-triazol-4-yl]-N-isobutyl-8,9-dihydro-7H-cyclopenta[h]isoquinoline-5-sulfonamide], the figure is 100 to 2000 nM.
As for `CC(C)CNS(=O)(=O)c1cc2c(c3cnc(C4CC4)cc13)C(C)(O)CC2` (centres unmarked) [Example 64, 3-cyclopropyl-9-hydroxy-9-methyl-N-(2-methylpropyl)-7,8-dihydrocyclopenta[h]isoquinoline-5-sulfonamide], the figure is 100 to 2000 nM; as for `CC(C)CNS(=O)(=O)c1cc2c(c3cnc(C4CC4)cc13)C(Nc1c(Nc3cccnc3)c(=O)c1=O)CC2` (centres unmarked) [Example 78, 3-cyclopropyl-9-[[3,4-dioxo-2-(pyridin-3-ylamino)cyclobuten-1-yl]amino]-N-(2-methylpropyl)-8,9-dihydro-7H-cyclopenta[h]isoquinoline-5-sulfonamide], 50 to 100 nM.
Regarding `CC(C)(F)CNS(=O)(=O)c1cc2c(c3cnc(C4CC4)cc13)C(Nc1ccc3c(c1)CC(=O)N3)CC2` (centres unmarked) [Example 29, 3-cyclopropyl-N-(2-fluoro-2-methylpropyl)-9-[(2-oxo-1,3-dihydroindol-5-yl)amino]-8,9-dihydro-7H-cyclopenta[h]isoquinoline-5-sulfonamide], the 50% inhibitory concentration (IC50) is 100 to 2000 nM.
Turning to `CC(C)(F)CNS(=O)(=O)c1cc2c(c3cnc(C4CC4)cc13)CC[C@H]2C(=O)Nc1cccnc1` (single isomer, unassigned) [Example 37, (7R*)-3-cyclopropyl-5-[(2-fluoro-2-methylpropyl)sulfamoyl]-N-pyridin-3-yl-8,9-dihydro-7H-cyclopenta[h]isoquinoline-7-carboxamide], the IC50 lay within 100 to 2000 nM.
Consider `CC(C)CNS(=O)(=O)c1cc2c(c3cnc(C4CC4)cc13)C(NC(=S)Nc1cccnc1)CC2` (centres unmarked) [Example 74, 1-[3-cyclopropyl-5-(2-methylpropylsulfamoyl)-8,9-dihydro-7H-cyclopenta[h]isoquinolin-9-yl]-3-pyridin-3-ylthiourea], for which the half-maximal inhibitory concentration (IC50) was in the range of 100 to 2000 nM.
With `CC(C)(F)CNS(=O)(=O)c1cc2c(c3cnc(C4CC4)cc13)CCC2Oc1cccnc1` (centres unmarked) [Example 94, 3-cyclopropyl-N-(2-fluoro-2-methylpropyl)-7-pyridin-3-yloxy-8,9-dihydro-7H-cyclopenta[h]isoquinoline-5-sulfonamide], the concentration for half-maximal inhibition (IC50) was 100 to 2000 nM.
With `Cc1cc(C(=O)NC2CN(C3CCc4c3cc(S(=O)(=O)NCC(C)(C)F)c3cc(C5CC5)ncc43)C2)n(C)n1` (centres unmarked) [Example 59, N-[1-[3-cyclopropyl-5-[(2-fluoro-2-methylpropyl)sulfamoyl]-8,9-dihydro-7H-cyclopenta[h]isoquinolin-7-yl]azetidin-3-yl]-2,5-dimethylpyrazole-3-carboxamide], the IC50 is 100 to 2000 nM.
On to `Cn1nnc(-c2ccc(NC3CCc4cc(S(=O)(=O)NCC(C)(C)F)c5cc(C6CC6)ncc5c43)cn2)n1` (centres unmarked) [Example 77, 3-cyclopropyl-N-(2-fluoro-2-methylpropyl)-9-[[6-(2-methyltetrazol-5-yl)pyridin-3-yl]amino]-8,9-dihydro-7H-cyclopenta[h]isoquinoline-5-sulfonamide], for which the IC50 was in the range of 50 to 100 nM.
In the case of `CC(C)(F)CNS(=O)(=O)c1cc2c(c3cnc(C4CC4)cc13)CCC2n1nccc1NC(=O)C1CC1` (centres unmarked) [Example 38, N-[2-[3-cyclopropyl-5-[(2-fluoro-2-methylpropyl)sulfamoyl]-8,9-dihydro-7H-cyclopenta[h]isoquinolin-7-yl]pyrazol-3-yl]cyclopropanecarboxamide], the IC50 was in the range of 100 to 2000 nM.
As for `CCNC1=NS(=O)(=O)N=C1NC1CCc2c1cc(S(=O)(=O)NCC(C)C)c1cc(C3CC3)ncc21` (centres unmarked) [Example 54, 3-cyclopropyl-7-[[4-(ethylamino)-1,1-dioxo-1,2,5-thiadiazol-3-yl]amino]-N-(2-methylpropyl)-8,9-dihydro-7H-cyclopenta[h]isoquinoline-5-sulfonamide], the figure is 100 to 2000 nM.
`CC(C)(F)CNS(=O)(=O)c1cc2c(c3cnc(C4CC4)cc13)CC[C@@H]2NC(=O)C1CN(C(=O)OC(C)(C)C)C1` (single isomer, unassigned) [Example 56, tert-butyl 3-[[(7R*)-3-cyclopropyl-5-[(2-fluoro-2-methylpropyl)sulfamoyl]-8,9-dihydro-7H-cyclopenta[h]isoquinolin-7-yl]carbamoyl]azetidine-1-carboxylate]: the IC50 was in the range of 100 to 2000 nM.
As for `CC(C)(F)CNS(=O)(=O)c1cc2c(c3cnc(C4CC4)cc13)C(Nc1cccnc1)CC2` (centres unmarked) [Example 32, 3-cyclopropyl-N-(2-fluoro-2-methylpropyl)-9-(pyridin-3-ylamino)-8,9-dihydro-7H-cyclopenta[h]isoquinoline-5-sulfonamide], the figure is 50 to 100 nM.
With `CC(C)CNS(=O)(=O)c1cc2c(c3cnc(C4CC4)cc13)C(Nc1nncn1-c1ccnn1C)CC2` (centres unmarked) [Example 3, 3-cyclopropyl-N-isobutyl-9-[[4-(2-methylpyrazol-3-yl)-1,2,4-triazol-3-yl]amino]-8,9-dihydro-7H-cyclopenta[h]isoquinoline-5-sulfonamide], the IC50 lay in the range of 100 to 2000 nM.
Consider `CC(C)(F)CNS(=O)(=O)c1cc2c(c3cnc(C4CC4)cc13)C(Nc1cncc3ccccc13)CC2` (centres unmarked) [Example 68, 3-cyclopropyl-N-(2-fluoro-2-methylpropyl)-9-(isoquinolin-4-ylamino)-8,9-dihydro-7H-cyclopenta[h]isoquinoline-5-sulfonamide], for which the IC50 was 100 to 2000 nM.
In the case of `CC(C)CNS(=O)(=O)c1cc2c(c3cnc(C4CC4)cc13)CCC2=O` [Example 48, 3-cyclopropyl-N-(2-methylpropyl)-7-oxo-8,9-dihydrocyclopenta[h]isoquinoline-5-sulfonamide], the IC50 was 100 to 2000 nM.
As for `Cc1cc(Nc2nncn2[C@H]2CCc3c2cc(S(=O)(=O)NCC(C)(C)F)c2cc(C4CC4)nnc32)n(C)n1` (single isomer, unassigned) [Example 25, (7R*)-3-cyclopropyl-7-[3-[(2,5-dimethylpyrazol-3-yl)amino]-1,2,4-triazol-4-yl]-N-(2-fluoro-2-methylpropyl)-8,9-dihydro-7H-cyclopenta[h]cinnoline-5-sulfonamide], the IC50 was in the range of 50 to 100 nM.
Regarding `CC1CC1C(=O)NC1CCc2cc(S(=O)(=O)NCC(C)(C)F)c3cc(C4CC4)ncc3c21` (centres unmarked) [Example 26, N-[3-cyclopropyl-5-[(2-fluoro-2-methylpropyl)sulfamoyl]-8,9-dihydro-7H-cyclopenta[h]isoquinolin-9-yl]-2-methylcyclopropane-1-carboxamide], the half-inhibitory concentration (IC50) is 100 to 2000 nM.
Consider `CC(C)CNS(=O)(=O)c1cc2c(c3cnc(C4CC4)cc13)CCC2n1cnnc1Nc1cccnc1` (centres unmarked) [Example 91, 3-cyclopropyl-N-(2-methylpropyl)-7-[3-(pyridin-3-ylamino)-1,2,4-triazol-4-yl]-8,9-dihydro-7H-cyclopenta[h]isoquinoline-5-sulfonamide], for which the IC50 was 10 to 50 nM.
For `CC(C)(F)CNS(=O)(=O)c1cc2c(c3cnc(C4CC4)cc13)CCC2N1CCC[C@@H](N)C1` (stereo partly drawn) [Example 57, 7-[(3R)-3-aminopiperidin-1-yl]-3-cyclopropyl-N-(2-fluoro-2-methylpropyl)-8,9-dihydro-7H-cyclopenta[h]isoquinoline-5-sulfonamide], the 50% inhibitory concentration (IC50) was 100 to 2000 nM.
As to `CC(C)CNS(=O)(=O)c1cc2c(c3cnc(C4CC4)cc13)CCC2NC(=S)Nc1cccnc1` (centres unmarked) [Example 95, 1-[3-cyclopropyl-5-(isobutylsulfamoyl)-8,9-dihydro-7H-cyclopenta[h]isoquinolin-7-yl]-3-(3-pyridyl)thiourea], the concentration for half-maximal inhibition (IC50) is 10 to 50 nM.
For `CCNC(=S)NC1CCc2c1cc(S(=O)(=O)NCC(C)C)c1cc(C3CC3)ncc21` (centres unmarked) [Example 51, 1-[3-cyclopropyl-5-(2-methylpropylsulfamoyl)-8,9-dihydro-7H-cyclopenta[h]isoquinolin-7-yl]-3-ethylthiourea], the IC50 was in the range of 100 to 2000 nM.
Regarding `[2H]C([2H])(NS(=O)(=O)c1cc2c(c3cnc(C4CC4)cc13)CCC2NC(=O)OC(C)(C)C)C(C)C` (centres unmarked) [Example 33, tert-butyl N-[3-cyclopropyl-5-[(1,1-dideuterio-2-methylpropyl)sulfamoyl]-8,9-dihydro-7H-cyclopenta[h]isoquinolin-7-yl]carbamate], the half-maximal inhibitory concentration (IC50) fell in the range of 100 to 2000 nM.
With `Cc1cc(Nc2nncn2[C@H]2CCc3c2cc(S(=O)(=O)NCC(C)(C)F)c2cc(C4CC4)ncc32)n(C)n1` (single isomer, unassigned) [Example 86, (7R*)-3-cyclopropyl-7-[3-[(2,5-dimethylpyrazol-3-yl)amino]-1,2,4-triazol-4-yl]-N-(2-fluoro-2-methylpropyl)-8,9-dihydro-7H-cyclopenta[h]isoquinoline-5-sulfonamide], the IC50 fell in the range of 50 to 100 nM.
Turning to `CC(C)(F)CNS(=O)(=O)c1cc2c(c3cnc(C4CC4)cc13)CC[C@@H]2NC(=O)c1cccnc1` (single isomer, unassigned) [Example 9, N-[(7R*)-3-cyclopropyl-5-[(2-fluoro-2-methylpropyl)sulfamoyl]-8,9-dihydro-7H-cyclopenta[h]isoquinolin-7-yl]pyridine-3-carboxamide], the IC50 was 100 to 2000 nM.

What is called IC50 is the midpoint of a concentration-inhibition curve.
